Data as given in US11708283B2, “Metal-chelating compositions and their use in methods of removing or inhibiting barium scale” (CORNELL UNIVERSITY, priority 2018, dated 2023).
Like-named read-outs stand apart in the source and are kept apart here.

Experiments:
[1] = literature values (footnotes b, c); cited from earlier work
[2] = cited from earlier work
[3] = literature values, cited from earlier work; for log Ka1 / log Ka2 / log Ka3 / log Ka4: I = 0.1M KCl (footnotes b, c, d)
[4] = cited from earlier work; remark: listed apart in the source
[5] = Recovery and reuse of macropa for BaSO4 dissolution
Method: The capacity for recovery and reuse of macropa post-BaSO4 dissolution was assessed qualitatively. FIG. 7 schematically depicts a process for ligand recovery and reuse. A solution of macropa-dissolved BaSO4 was acidified to release the Ba^2+ from the ligand as BaSO4. After filtration of the precipitated BaSO4 and basification of the solution, the recovered ligand was successfully reused for another cycle of BaSO4 dissolution. More specifically, a sample of macropa-dissolved BaSO4 (9.66 mM macropa, 8.74 mM Ba(NO3)2, 26.04 mM Na2SO4) was acidified to pH 1 with concentrated HCl to protonate the ligand, inducing Ba^2+ decomplexation and precipitation as BaSO4. The macropa solution was isolated by filtration, basified to pH 8 with 2 M NaOH, and combined with another portion of BaSO4. Within 40 minutes, no visible precipitate remained in the vial, signaling that the recycled macropa dissolved all the BaSO4.
In other experiments, an initial solution of macropa-dissolved BaSO4 was prepared by stirring at 450 RPM a suspension containing BaSO4 (8.74 mM Ba(NO3)2; 26.04 mM Na2SO4), macropa (9.66 mM), and 2M NaOH (35 μL) in 1M NaHCO3 (326 μL). The final volume was 1035 μL and the pH was 8. […] The solution was adjusted to pH 1 (by litmus paper) by adding concentrated HCl (3 drops). The resultant suspension was stirred for 10 minutes and then filtered through a nylon syringe filter (0.22 μm). The syringe filter was rinsed with 0.1 M HCl (2×100 μL) to facilitate full recovery of the ligand. The pH of the filtrate was carefully adjusted back to pH 8 (by litmus paper) with 2 M NaOH. To this recovered solution of macropa was added another portion of BaSO4 (0.009 mmol BaNO3, 0.027 mmol Na2SO4). The suspension was stirred at 450 RPM and RT. The dissolution of BaSO4 was monitored visually until all of the BaSO4 was dissolved, marking the completion of a full cycle of ligand recovery and reuse. Another cycle was then initiated via the addition of concentrated HCl to the solution. A total of five cycles were performed and the time to full dissolution of BaSO4 was recorded. […] The precipitate may be attributed to a small amount of BaSO4 that remains undissolved as a consequence of ligand loss over time, which occurs because aliquots of the solution are removed to assess the pH during the recovery and reuse process.

[6] = Protonation constants of the ligands by pH-potentiometric titration; assay type: physicochemical; conditions: for log Ka1 / log Ka2 / log Ka3 / log Ka4: pH-potentiometry, 25° C., I = 0.1M KCl; for occurrence of the fully deprotonated ligand in solution: ligand speciation versus pH
Method: Potentiometric measurements were carried out using a titrator equipped with a combination electrode and an exchange unit with an automatic burette (10 mL). The titration vessel was fitted with a removable glass cell (˜70 mL) and was thermostated at 25° C. using a circulating water bath. CO2 was excluded from the vessel prior to and during the titrations using a small positive pressure of Ar that was passed through a solution of 30 wt % KOH. Carbonate-free KOH (˜0.1 M) was prepared by dissolving KOH pellets (semiconductor grade, 99.99% trace metals basis) in freshly boiled water (≥18 MΩ-cm) and was standardized by potentiometric titration against potassium hydrogen phthalate. Hydrochloric acid (0.1 M) was standardized against freshly prepared KOH. Titration solutions were maintained at a constant ionic strength of 0.1 M using KCl (≥99.5%) and were equilibrated for 15 minutes prior to the addition of titrant. Before every titration, the electrode was calibrated in terms of hydrogen ion concentration by titrating a solution of standardized HCl (5 mM) containing supporting electrolyte (95 mM) with standardized KOH (2 mL). Data within the pH ranges of 2.5-3.2 and 10.8-11.2 were analyzed using software to obtain the standard electrode potential (E0) and slope factor. Owing to the sharp rise in pH at the titration endpoint (pH 3.2-10.8), data obtained in this region are subject to significant error and were therefore excluded from the calibration analysis. A pKw value of 13.78 was taken from the literature (Baes, C. F.; Mesmer, R. E. The Hydrolysis of Cations; Wiley: New York, 1976).
(§1) Stock solutions of macropa and macropaquin were prepared in H2O. […] The exact ligand concentrations were determined from the potentiometric titration curves with KOH. Protonation equilibria of macropa^2− and macropaquin^2− were determined by adding standardized KOH to a solution (20 mL) containing ligand (˜0.02 mmol), 0.1 M HCl (0.1 mmol), and 1 M KCl (1.9 mmol). The titration method employed a 0.1 mV/min drift limit with a maximum wait time of 90 sec between addition of base and measurement. At least 70 data points were collected over the pH range of 2.5-10.5 (macropa) or 2.5-11.3 (macropaquin). The protonation constants, defined in Eq. 1, were calculated from the average of at least 4 independent titrations using the appropriate software.
Both ligand (L) and proton concentrations were admitted as refineable parameters. The errors given for the protonation constants correspond to one standard deviation. The protonation constants measured for macropa^2− were consistent with those previously reported (Roca-Sabio et al., 2009, supra); log Ka5 was not able to be determined under the conditions employed here. Protonation equilibria of macroquin-SO3^4− were determined by titrating standardized HCl (˜5.19 mL) into a solution (62.5 mL) containing ligand (˜0.013 mmol, 10.4 mg), KOH (0.25 mmol), and 1 M KCl (6 mmol). The same titration method was employed as described above for the other two ligands. At least 90 data points over the pH range of 4.0-10.8 were included in the refinement; no additional protonation constants could be refined when data from pH 2.5-3.99 were included. The protonation constants were calculated from the average of 15 independent titrations.

[7] = Dissolution of barite ore in columns (ligand efficiency, GFAAS); conditions: ~48 mM ligand, soak 1 hour
[8] = Aqueous solubility of ligand (stock solution preparation); assay type: physicochemical; conditions: stock solution could not be prepared
Method: as §1

[9] = literature values (footnotes b, c)
[10] = bracketed literature value, I = 0.1M KNO3 (footnote e)

O=C(O)CN1CCN(CC(=O)O)CCN(CC(=O)O)CCN(CC(=O)O)CC1 [DOTA, reference compound]
log KBaL [1]: 11.75
log KSrHL [2, 9]: 4.52
log Ka1 [3]: 11.14
log Ka2 [3]: 9.69
log Ka3 [3]: 4.85
log Ka4 [3]: 3.95
log KCaHL [4, 9]: 3.60

O=C(O)c1cccc(CN2CCOCCOCCN(Cc3cccc(C(=O)O)n3)CCOCCOCC2)n1 [macropa, 6,6-((1,4,10,13-tetraoxa-7,16-diazacyclooctadecane-7,16-diyl)bis(methylene))dipicolinic acid]
time to complete dissolution of BaSO4 (initial solution) ([5]; 9.66 mM macropa, 8.74 mM Ba(NO3)2, 26.04 mM Na2SO4, pH 8): 17 min
time until no visible BaSO4 precipitate remained with recycled ligand ([5]; first reuse, pH 8): ≤ 40 min
efficacy on reuse four more times ([5]; ligand recovered and reused): negligible loss in efficacy or speed of dissolution
BaSO4 dissolution during the 4th and 5th cycles ([5]; recovery and reuse cycles): dissolution of most of the BaSO4 was rapidly achieved within the first hour
overall basicity of the ligand, sum of log Ka values [6]: 19.99
fraction of ligand fully deprotonated (L^2−) ([6]; pH 7.4): 43%
log Ka1 [6]: 7.41
log Ka2 [6]: 6.899
log Ka3 [6]: 3.23(1)
log Ka4 [6]: 2.45(5)
log Ka1 ([6]; listed as macropa^2−): 7.41(1)
log Ka2 ([6]; listed as macropa^2−): 6.899(3)
log KSrHL [2, 10]: [4.16]
log KSrL [2, 10]: [9.57]
ligand efficiency (percent of ligand saturated with Ba^2+) ([7]; pH 8, barite 3 g): 40%
ligand efficiency (percent of ligand saturated with Ba^2+) ([7]; pH 11, barite 3 g): 40%
log Ka1 [3]: (7.41)^d
log Ka2 [3]: (6.85)
log Ka3 [3]: (3.32)
log Ka4 [3]: (2.36)
log Ka5 ([3]; I = 0.1M KCl (footnotes c, d)): (1.69)
log KCaL [4, 10]: [5.25]^e

O=C(O)c1cccc(CN2CCOCCOCCN(Cc3ccc4cccc(O)c4n3)CCOCCOCC2)n1 [macropaquin, 6-((16-((8-hydroxyquinolin-2-yl)methyl)-1,4,10,13-tetraoxa-7,16-diazacyclooctadecan-7-yl)methyl)picolinic acid]
overall basicity of the ligand, sum of log Ka values [6]: 27.69
occurrence of the fully deprotonated ligand in solution [6]: do not exist in solution below pH 8
fraction of ligand as monoprotonated species HL^− ([6]; pH 7.4): 56%
log Ka1 [6]: 10.33
log Ka2 [6]: 7.15
log Ka3 [6]: 6.97
log Ka4 [6]: 3.24(4)
log Ka1 ([6]; listed as macropaquin^2−): 10.33(4)
log Ka2 ([6]; listed as macropaquin^2−): 7.15(3)
log Ka3 ([6]; listed as macropaquin^2−): 6.97(2)

O=S(=O)(O)c1ccc(O)c2nc(CN3CCOCCOCCN(Cc4ccc5c(S(=O)(=O)O)ccc(O)c5n4)CCOCCOCC3)ccc12 [macroquin-SO3, 2,2′-((1,4,10,13-tetraoxa-7,16-diazacyclooctadecane-7,16-diyl)bis(methylene))bis(8-hydroxyquinoline-5-sulfonic acid)]
overall basicity of the ligand, sum of log Ka values [6]: 32.14
occurrence of the fully deprotonated ligand in solution [6]: do not exist in solution below pH 8
fraction of ligand present as H2L^2− ([6]; pH 7.4): 78%
log Ka1 [6]: 9.34
log Ka2 [6]: 9.43
log Ka3 [6]: 6.75
log Ka4 [6]: 6.62
log Ka1 ([6]; listed as macroquin-SO3^4−): 9.34(4)
log Ka2 ([6]; listed as macroquin-SO3^4−): 9.43(1)
log Ka3 ([6]; listed as macroquin-SO3^4−): 6.75(4)
log Ka4 ([6]; listed as macroquin-SO3^4−): 6.62(4)
aqueous solubility [8]: poor aqueous solubility
